Values after ≈ are worked out from the molar mass of the structure shown. Where two headings read alike, the source gives them in different places.
What was measured:
[1] = test system: Enterococcus faecalis (CL8516); assay: Microbroth dilution MIC, Enterococcus faecalis; format: cell-based; conditions: cation-adjusted Mueller Hinton broth, no visible growth
[2] = test system: Streptococcus pneumoniae (CL2883); assay: Microbroth dilution MIC, Streptococcus pneumoniae; format: cell-based; conditions: cation-adjusted Mueller Hinton broth + lysed horse blood
[3] = test system: Haemophilus influenzae (MB4572); assay: Microbroth dilution MIC, Haemophilus influenzae; format: cell-based; conditions: Haemophilus test medium; for MIC: read-out: MIC-100
From the text: The strain of Haemophilus influenzae is a mouse pathogen used for in vivo testing at Merck. Selected isolates were subcultured onto either […] […] Isolates were subcultured twice before assay. […] Plates were read to no growth.

[4] = test system: Escherichia coli envA1 tolC (MB5746); assay: microbe, parasite or virus in culture; conditions: read-out: MIC-100
[5] = test system: Staphylococcus aureus (MB2865); assay: Microbroth dilution MIC, Staphylococcus aureus MB2865; format: cell-based; conditions: cation-adjusted Mueller Hinton broth, no visible growth
From the text: The Staphylococcus aureus strains used were obtained from the Merck Culture Collection, and are identified as MB2865 and MB5957. […] Selected isolates were subcultured onto either […] Isolates were subcultured twice before assay. […] Plates were read to no growth.

[6] = test system: Bacillus subtilis (MB964); assay: Microbroth dilution MIC, Bacillus subtilis; format: cell-based; conditions: cation-adjusted Mueller Hinton broth, no visible growth; for MIC: read-out: MIC-100
From the text: (§1) Selected isolates were subcultured onto either […] […] Isolates were subcultured twice before assay. […] Plates were read to no growth.

[7] = test system: Candida albicans (MY1055); assay: Microbroth dilution MIC, Candida albicans control; format: cell-based; conditions: Candida albicans (MY1055) control strain, RPMI 1640; for MIC: read-out: MIC-100
From the text: as §1

[8] = test system: Escherichia coli envA1 tolC (MB5746); conditions: cell-wall permeable strain, cation-adjusted Mueller Hinton broth
[9] = test system: Clostridium difficile (ATCC 43596); assay: Agar dilution MIC, Clostridium difficile ATCC 43596; format: cell-based; conditions: Clostridioides difficile, ATCC43596, 48 h
Protocol: (§2) Drug dilutions and drug-supplemented agar plates were prepared manually.
(§3) The growth and test media were those recommended by the Clinical and Laboratory Standards Institute (CLSI) for growth and susceptibility testing of anaerobes. See Clinical and Laboratory Standards Institute (CLSI). Methods for Antimicrobial Susceptibility Testing of Anaerobic Bacteria; Approved Standard—Seventh Edition. CLSI document M11-A7 [ISBN1-56238-626-3]. Clinical and Laboratory Standards Institute, 940 West Valley Road, Suite 1400, Wayne, Pa. 19087-1898 USA, 2007.
(§4) This medium is referred to as Supplemented Brucella Agar (SBA).
(§5) The media were prepared as follows: Brucella agar was weighed and water was added to the final volume minus the volume of the hemin, vitamin K, and lysed sheep blood. The agar was dissolved by boiling. Hemin (5 μg/ml) and vitamin K (1 μg/ml) were added to the agar and it was autoclaved for 23 minutes at 121° C. The agar was allowed to cool to 50° C. and 18.5 ml was dispensed into sterile glass tubes. Immediately prior to pouring the plates 1 ml of lysed sheep blood and 0.5 ml of the appropriate drug dilution were added to the tube. The contents of the tube were gently mixed by inverting the tube, and the drug-supplemented agar was poured into a petri dish. […]
(§6) The inocula for the MIC assay were prepared inside the Bactron II anaerobe chamber, as follows. […] The MIC was read per CLSI guidelines.

[10] = test system: Clostridium difficile (ATCC 700057); assay: Agar dilution MIC, Clostridium difficile ATCC 700057; format: cell-based; conditions: Clostridioides difficile
Protocol: as §2, §3, §4, §5, §6

[11] = test system: Clostridium difficile (ATCC 700057); conditions: published CLSI quality control range; cited from earlier work

Work on CC[C@H]1OC(=O)[C@H](C)[C@@H](O[C@H]2C[C@@](C)(OC)[C@@H](O)[C@H](C)O2)[C@H](C)[C@@H](O[C@@H]2O[C@H](C)C[C@H](N(C)C)[C@H]2O)[C@](C)(OC)C[C@@H](C)C(=O)[C@H](C)[C@@H](O)[C@]1(C)O [Clarithromycin] yielded an MIC ([1]; read-out: MIC-100) of 2 µg/mL (≈ 2.67 µM), an MIC ([2]; read-out: MIC-100) of 0.03 µg/mL and an MIC [3] of 4 µg/mL (≈ 5.35 µM). For the same compound, the MIC [4] was 0.12 µg/mL (≈ 0.16 µM), the MIC ([5]; read-out: MIC-100) was 0.12 µg/mL (≈ 0.16 µM) and the MIC [6] was 0.06 µg/mL (≈ 0.0802 µM). The MIC [7] was over 16 µg/mL.
For CC1(C)S[C@@H]2[C@H](NC(=O)Cc3ccccc3)C(=O)N2[C@H]1C(=O)O [Penicillin G], the MIC-100 [1] was 0.5 µg/mL (≈ 1.5 µM), the MIC-100 [2] was under 0.06 µg/mL and the MIC-100 [3] was 0.25 µg/mL (≈ 0.748 µM). It also gave an MIC-100 [8] of 8 µg/mL (≈ 23.9 µM), an MIC-100 [5] of under 0.06 µg/mL and an MIC-100 [6] of under 0.06 µg/mL. The MIC-100 [7] was over 64 µg/mL.
With O=C(O)c1cn(C2CC2)c2cc(N3CCNCC3)c(F)cc2c1=O [Ciprofloxacin] the MIC [3] was under 0.015 µg/mL, the MIC [6] was 0.06 µg/mL (≈ 0.181 µM) and the MIC [7] was over 16 µg/mL.
For CN[C@H](CC(C)C)C(=O)N[C@H]1C(=O)N[C@@H](CC(N)=O)C(=O)N[C@H]2C(=O)N[C@H]3C(=O)N[C@H](C(=O)N[C@H](C(=O)O)c4cc(O)cc(O)c4-c4cc3ccc4O)[C@H](O)c3ccc(c(Cl)c3)Oc3cc2cc(c3O[C@@H]2O[C@H](CO)[C@@H](O)[C@H](O)[C@H]2O[C@H]2C[C@](C)(N)[C@H](O)[C@H](C)O2)Oc2ccc(cc2Cl)[C@H]1O [Vancomycin, vancomycin], the MIC [9] is given as 1 µg/mL (≈ 0.69 µM), the MIC ([10]; ATCC700057, 48 h) is given as 2 µg/mL (≈ 1.38 µM) and the “CLSI quality control range (MIC)” value [11] is given as 2 (0.5-4)^1 μg/mL.
Cc1ncc([N+](=O)[O-])n1CCO [Metronidazole] gave an MIC [9] of 0.25 µg/mL (≈ 1.46 µM) and an MIC ([10]; ATCC700057, Clostridium difficile (ATCC 700057), agar dilution, Supplemented Brucella Agar, anaerobic, 35° C., 48 h, read-out: MIC) of 0.25 µg/mL (≈ 1.46 µM).

— patent publication US9126983B2, “Extracts from kibdelos porangium as antibacterial agents” (Merck Sharp & Dohme Corp., priority 2009, dated 2015)
